Data on 25 compounds can be found in PubChem BioAssay (NCI).

Among the test systems are ACHN renal; HL-60(TB) leukemia; MOLT-4 leukemia; OVCAR-8 ovarian; SF-295 CNS; SK-MEL-28 melanoma; SW-620 colon.
Holding throughout (experiment): NCI tumour cell line growth inhibition, 48 h

Several values for one entry are separate records, joined by “and”; a condition that tells them apart may be missing. Identical values can stand only once.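 Step 1: Grow cells in 96-well plates. Step 2: Expose to compound for 48 hours at 5 concentrations. Step 3: Interpolate endpoints linearly; if unreached, use highest concentration. Here, GI50 denotes the concentration required for 50% inhibition of growth. TGI marks complete inhibition of growth.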

Turning to `CSc1nc2nn(Cc3ccccc3)cc2c(=O)[nH]1`, the TGI in the assay on ACHN renal, with HL-60(TB) leukemia, with MOLT-4 leukemia, in the assay with OVCAR-8 ovarian, with SF-295 CNS and in the assay with SK-MEL-28 melanoma was > 100 µM in each case. For the same compound, in the assay with SW-620 colon, the TGI is > 100 µM.
In the case of `Cc1[nH]c2ccccc2c1CC/C(=N\Nc1ccccc1)c1ccccc1`, the TGI in the assay with ACHN renal, with HL-60(TB) leukemia, in the assay with MOLT-4 leukemia, in the assay on OVCAR-8 ovarian, in the assay on SF-295 CNS and in the assay on SK-MEL-28 melanoma was > 100 µM in each case. Moreover, the TGI with SW-620 colon is > 100 µM.
For the compound `CCOc1ccc(/C=C/c2cc(OC)c(OC)c(OC)c2)cc1`, the TGI in the assay with ACHN renal was > 64.8 µM; in the assay with HL-60(TB) leukemia, 1.46 µM; with MOLT-4 leukemia, 44.6 µM; in the assay with OVCAR-8 ovarian, > 100 µM; with SF-295 CNS, 16.9 µM; in the assay with SK-MEL-28 melanoma, > 100 µM. Further, the TGI in the assay on SW-620 colon was > 100 µM.
For `C[C@@H](NS(=O)(=O)c1ccc(NC(=O)c2ccccc2)cc1)C(=O)O`, the TGI with ACHN renal, in the assay with HL-60(TB) leukemia, in the assay on MOLT-4 leukemia, with OVCAR-8 ovarian, with SF-295 CNS and with SK-MEL-28 melanoma was > 100 µM in each case. The TGI in the assay with SW-620 colon was > 100 µM.
In the case of `OCC[N+]12CCCN1CCC2`, the TGI with ACHN renal, with HL-60(TB) leukemia, in the assay with MOLT-4 leukemia, in the assay with OVCAR-8 ovarian, in the assay with SF-295 CNS and in the assay on SK-MEL-28 melanoma was > 100 µM each time. Further, the TGI with SW-620 colon was > 100 µM.
On to `CN(C)CCC(CCN(C)C)=NO`, for which the TGI in the assay with ACHN renal, in the assay with HL-60(TB) leukemia, with MOLT-4 leukemia, with OVCAR-8 ovarian, in the assay on SF-295 CNS and in the assay with SK-MEL-28 melanoma was > 100 µM in each case. In the assay with SW-620 colon, the TGI was > 100 µM.
Consider `CCOC(=O)C(CCC(N)=O)(CCC(=O)OC)C(=O)OCC`, for which the TGI with ACHN renal, in the assay on HL-60(TB) leukemia, in the assay on MOLT-4 leukemia, in the assay with OVCAR-8 ovarian, in the assay with SF-295 CNS and with SK-MEL-28 melanoma was > 100 µM each time. The TGI in the assay on SW-620 colon is > 100 µM.
Take `COC(=O)c1ncc2c(=O)[nH]c3ccccc3c2c1C(=O)OC`: the TGI in the assay with ACHN renal, in the assay with HL-60(TB) leukemia, in the assay with MOLT-4 leukemia, in the assay with OVCAR-8 ovarian, with SF-295 CNS and in the assay with SK-MEL-28 melanoma was > 100 µM in each case. Besides, the TGI with SW-620 colon was > 100 µM.
Turning to `CC(=O)O[C@H]1CCN2C(=O)C=CC(OCc3ccccc3)C12` (some centres not stated), the TGI with ACHN renal, with HL-60(TB) leukemia, in the assay on MOLT-4 leukemia, in the assay on OVCAR-8 ovarian, in the assay on SF-295 CNS and in the assay on SK-MEL-28 melanoma was > 100 µM throughout. The TGI with SW-620 colon was > 100 µM.
Regarding `O=C(/C=C/c1ccccc1O)c1ccc([N+](=O)[O-])cc1`, the TGI with ACHN renal was 26.4 µM; with HL-60(TB) leukemia, 56.9 µM; with MOLT-4 leukemia, 76.6 µM; with OVCAR-8 ovarian it was 29.1 µM; with SF-295 CNS, 56.5 µM; in the assay on SK-MEL-28 melanoma it was 94.4 µM. Also, in the assay with SW-620 colon, the TGI was 31.3 µM.
On to `C=CC(=O)NC(N)=NC#N`, for which the TGI in the assay on ACHN renal is 245 µM; with HL-60(TB) leukemia, > 66.3 µM and 327 µM; in the assay with MOLT-4 leukemia it was 555 µM; with OVCAR-8 ovarian it was 484 µM; in the assay on SF-295 CNS, 843 µM; in the assay on SK-MEL-28 melanoma, 261 µM. This compound also showed a TGI in the assay with SW-620 colon of 314 µM. In addition, the GI50 in the assay with HL-60(TB) leukemia was 132 µM; with MOLT-4 leukemia, 197 µM; in the assay on SW-620 colon, 160 µM.
For the compound `O=C1C(=C([O-])c2ccccc2)C(=O)c2ccccc21.O=C1C(=C([O-])c2ccccc2)C(=O)c2ccccc21.[Mn+2]`, the GI50 in the assay with MOLT-4 leukemia was > 100 µM; in the assay on OVCAR-8 ovarian it was > 100 µM; in the assay on SF-295 CNS it was 74.6 µM; in the assay on SK-MEL-28 melanoma it was 93.8 µM; in the assay with SW-620 colon, > 100 µM. The TGI in the assay on MOLT-4 leukemia, in the assay on OVCAR-8 ovarian, with SF-295 CNS, with SK-MEL-28 melanoma and in the assay on SW-620 colon was > 100 µM throughout.
As for `N#CCC(=O)N/N=C1/C(=O)N(c2cc(Cl)ccc2Cl)C(=O)C(=O)C1c1nc2ccccc2s1` (configuration not stated), the TGI with ACHN renal, with HL-60(TB) leukemia, in the assay on MOLT-4 leukemia, in the assay with OVCAR-8 ovarian, with SF-295 CNS and with SK-MEL-28 melanoma was > 100 µM throughout. In addition, the TGI with SW-620 colon was > 100 µM.
In the case of `CC(C)(C)C(=O)Nc1cccc2oc(-c3ccccc3)cc12`, the TGI with ACHN renal, in the assay on HL-60(TB) leukemia, in the assay on MOLT-4 leukemia, with OVCAR-8 ovarian, with SF-295 CNS and in the assay with SK-MEL-28 melanoma was > 100 µM throughout. In addition, the TGI in the assay on SW-620 colon was > 100 µM.
Consider `O=C(OCCCl)C1OC(n2cc(F)c(=O)[nH]c2=O)CC1O` (configuration not stated), for which the TGI in the assay with ACHN renal, in the assay with HL-60(TB) leukemia, with MOLT-4 leukemia, with OVCAR-8 ovarian, with SF-295 CNS and with SK-MEL-28 melanoma was > 100 µM each time. For the same compound, the TGI with SW-620 colon is > 100 µM.
Regarding `CC(C)(C)c1cc(CCCCCCCC2(CCCCCCCc3cc(C(C)(C)C)cc(C(C)(C)C)c3)OC(COCCOCCCCCC#N)C(COCCOCCCCCC#N)O2)cc(C(C)(C)C)c1` (configuration not stated), the TGI in the assay with ACHN renal, in the assay on HL-60(TB) leukemia, with OVCAR-8 ovarian, with SF-295 CNS, in the assay on SK-MEL-28 melanoma and in the assay with SW-620 colon was > 100 µM throughout.
Turning to `Cc1ccc(/C=C(\NC(=O)c2ccccc2)c2nc3ccccc3[nH]2)cc1`, the TGI is > 100 µM in the assay with ACHN renal; 56.8 µM in the assay with HL-60(TB) leukemia; > 100 µM in the assay on OVCAR-8 ovarian; > 100 µM with SF-295 CNS; > 100 µM in the assay on SK-MEL-28 melanoma; > 100 µM in the assay on SW-620 colon.
Regarding `Cc1ccc(NC(=O)CC/C(CC(=O)C(C)(C)C)=N\NC(=O)C[n+]2ccccc2)cc1C`, the TGI in the assay with ACHN renal, in the assay with HL-60(TB) leukemia, with MOLT-4 leukemia, in the assay with OVCAR-8 ovarian, with SF-295 CNS and in the assay with SK-MEL-28 melanoma was > 100 µM each time. In addition, in the assay with SW-620 colon, the TGI is > 100 µM.
For `O=C(Cc1nc2ccccc2o1)C(=O)Nc1cccc(Cl)c1`, the TGI in the assay on ACHN renal, with HL-60(TB) leukemia, in the assay with MOLT-4 leukemia, in the assay on OVCAR-8 ovarian, in the assay with SF-295 CNS and in the assay on SK-MEL-28 melanoma was > 100 µM each time. The TGI in the assay on SW-620 colon was > 100 µM.
As to `NC1CCCCC1N.O=C1C=C/C(=C(/c2ccc(O)c(Br)c2)c2ccccc2S(=O)(=O)[O-])C=C1Br.O=C1C=C/C(=C(/c2ccc(O)c(Br)c2)c2ccccc2S(=O)(=O)[O-])C=C1Br.[Pt+4]`, the GI50 was 1.42 µM in the assay with ACHN renal; 1.43 µM in the assay on HL-60(TB) leukemia; 1.27 µM with OVCAR-8 ovarian; 4.99 µM in the assay on SF-295 CNS; 2.35 µM in the assay on SK-MEL-28 melanoma; 0.578 µM in the assay on SW-620 colon. Moreover, the TGI in the assay with ACHN renal was > 100 µM; in the assay with HL-60(TB) leukemia, > 100 µM; in the assay on OVCAR-8 ovarian, > 100 µM; in the assay on SF-295 CNS, > 100 µM; in the assay on SK-MEL-28 melanoma it was 38.2 µM; in the assay with SW-620 colon, 52.2 µM.
As to `O=C(N/C(=C\c1cccc([N+](=O)[O-])c1)c1nc2ccccc2[nH]1)c1ccccc1`, the TGI is > 100 µM in the assay on ACHN renal; > 100 µM in the assay on MOLT-4 leukemia; > 100 µM in the assay with OVCAR-8 ovarian; 68.9 µM in the assay on SK-MEL-28 melanoma; > 100 µM in the assay with SW-620 colon.
On to `NS(=O)(=O)c1ccc(NC(=O)Cc2nc3ccccc3s2)cc1`, for which the TGI was found to be 29.3 µM in the assay with ACHN renal; 45.7 µM in the assay with HL-60(TB) leukemia; 58.6 µM in the assay with MOLT-4 leukemia; 34.9 µM with OVCAR-8 ovarian; 33.2 µM in the assay on SF-295 CNS; 32 µM in the assay on SK-MEL-28 melanoma. In the assay on SW-620 colon, this compound displayed a TGI of 31.7 µM.
As to `CC1=NN(C(=O)Nc2ccc(Cl)cc2)C(=O)C2CCC(=O)N12` (configuration not stated), the TGI in the assay on ACHN renal, in the assay on HL-60(TB) leukemia, in the assay with MOLT-4 leukemia, with OVCAR-8 ovarian, in the assay with SF-295 CNS and in the assay with SK-MEL-28 melanoma was > 100 µM in each case. Also, the TGI in the assay with SW-620 colon is > 100 µM.
On to `c1ccncc1`, for which the TGI with ACHN renal, with HL-60(TB) leukemia, with MOLT-4 leukemia, in the assay with OVCAR-8 ovarian, in the assay on SF-295 CNS and with SK-MEL-28 melanoma was > 100 µM in each case. The TGI with SW-620 colon is > 100 µM.
Take `CCN(CC)CC(C)C(=O)/C=C/c1ccc(C)cc1` (configuration not stated): the TGI in the assay on ACHN renal came out at 4.36 µM; in the assay with HL-60(TB) leukemia, 14.4 µM; with MOLT-4 leukemia it was 7.07 µM; in the assay on OVCAR-8 ovarian, 11.3 µM; in the assay on SF-295 CNS, 28.6 µM; with SK-MEL-28 melanoma, 3.69 µM. In the assay on SW-620 colon, this compound showed a TGI of 2.96 µM.
